Measured values from patent US20240208950A1, “COMPOSITIONS AND METHODS FOR TREATMENT OF CERVICAL AND OVARIAN CANCER” (SOUTH DAKOTA BOARD OF REGENTS, priority 2021, published 2024).

Experiments:
[1] = tested on: cleaved PARP in CaSki cells; experiment: Western blot for cleavage of PARP, CaSki; assay type: cell-based, human; conditions: 24 hours
Method: (§1) The effect of Br-ORM on protein expression in cervical cancer cells were determined by Western blot analysis by using specific antibodies.
It was observed that Br-ORM exerts potent growth inhibitory effects, so the effect of Br-ORM on apoptosis induction was further examined. Cervical cancer cells were treated with Br-ORM (10 μM) for 24 hours and the apoptosis inducing effect of Br-ORM was analyzed by Annexin V staining and Western blot analysis for cleavage in PARP protein.
FIG. 13. Br-ORM decreases proliferation and colony formation of cervical cancer cells. FIG. 13A. Effect of Br-ORM on cell viability of CaSki cells (i) and SiHa cells (ii). Briefly, cervical cancer cells were seeded (2500) in each well of 96-well plate and after overnight incubation; cells were treated with indicated concentrations of Br-ORM for 24 hours. Cell viability was assessed by MTS assay. […] Bar graphs indicating quantification of colony formation in CaSki (i), and SiHa (ii) cells of cervical cancer with respect to vehicle control. […] Briefly, cervical cancer cells were treated with Br-ORM (10 μM) for 24 hours and the apoptosis inducing effect of Br-ORM was analyzed by Annexin V staining. […] The equal loading of protein in each lane was determined by probing the blots with β-actin antibody (FIG. 13F). […] Br-ORM arrests cell cycle in G1/S phase as determined by flow cytometry. […]

[2] = tested on: EMT markers and MMPs in SiHa cells; experiment: Western blot for EMT markers and MMPs, SiHa; assay type: cell-based, human; conditions: 24 hours
Method: In a further example, cell lysates and western blot analysis was conducted for EMT markers and MMPs. […] In this example, about 70% of confluent SiHa and CaSki were treated with ORM-Br ([…]) for 24 hours. Cell lysates were prepared, and western blot analysis were conducted for EMT markers and MMPs analysis. The effect of ORM-Br on protein levels of cell-cycle regulatory proteins (cyclin E1 and p27) in both CaSki and SiHa cell lines are shown.
as §1
Epithelial mesenchymal transition (EMT) is the basic characteristic of cancer cells in which epithelial cells undergo morphologic and molecular changes that transform the cells to mesenchymal, highly metastatic (invasive and motile), and drug-resistant phenotypes. Thus, targeting EMT may reduce the invasive phenotypes of a cancer cell and have significant advantage to overcome drug resistance. It has been reported that β-catenin is involved in invasion and metastasis via inducing EMT in various tumor cells. The effect of Br-ORM treatment on various EMT markers in cervical cancer cells was evaluated. […] The effect of Br-ORM on expression of EMT markers in cervical cancer cells compared to untreated group by use of qPCR analysis was determined. […] Expression of E-cadherin in cervical cancer cells treated with Br-ORM (10 μM) for 18 hours was also determined by immunofluorescence and confocal microscopy. Images were captured under 60× magnification and representative images are presented (FIG. 14G).
FIG. 14. Br-ORM decreases migration, invasion and attenuates EMT in cervical cancer cells. Effect of Br-ORM on cell migration of cervical cancer cells as determined by agarose bead (FIG. 14A), scratch wound healing (FIG. 14B), and Boyden chamber assay (FIG. 14C). AB denotes agarose bead while MC denotes migratory cells. Arrows indicate the distance of cervical cancer (CaSki and SiHa) cells migration in control and Br-ORM treated groups (FIG. 14A(i)-(ii)). […] Closure of wound was determined and photographed using phase contrast microscopy. […] Bar graph represent the quantification of migrated CaSki cells of control and Br-ORM treated groups (FIG. 14C(ii)). […] Effect of Br-ORM treatment on invasion of CaSki cells as determined by a commercially available kit (BD Biosciences) as described in materials and methods. In brief, 24 hours post-treatment of Br-ORM, invaded cells were fixed, stained and counted. […] Bar graph represent the quantification of invaded CaSki cells of control and Br-ORM treated groups (FIG. 14D(ii)). […] Effect of Br-ORM on E-cadherin expression in cervical cancer cells as determined by confocal microscopy in control and Br-ORM treated cells after 18 hours.

COc1ccc2c(c1)OC(C)(C)C(c1ccc(Br)cc1)C2c1ccc(OCCN2CCCC2)cc1 (centres unmarked) [ORM-Br]
protein levels of cleaved PARP [1]: dose dependently enhanced the protein levels of cleaved PARP | EMT associated markers (N-cadherin, vimentin and snail) expression [2]: inhibits the EMT associated markers | expression of E-cadherin [2]: induced the expression of E-cadherin | expression of MMP2 and MMP9 [2]: inhibited the expression of MMP2 and MMP9 | EMT associated markers (N-cadherin, vimentin and snail) expression ([2]; listed as Br-ORM): marked inhibition
